How the values were obtained:
Assay in all cases: β-lactamase inhibitory activity, spectrophotometric, nitrocefin
Assay type in all cases: biochemical
CMY-2 = CMY-2 (Klebsiella pneumoniae, UniProt Q48434)
Method: (§1) The inhibitory activities of present compounds against various enzymes were measured by spectrophotometric assay using […] and using nitrocefin as a substrate (J. Antimicrob. Chemother., 28, pp 775-776 (1991)). The concentration of inhibitor (IC50) which inhibits by 50% the reaction of hydrolysis of nitrocefin by the enzyme is determined.

CTX-M-9 = CTX-M-9 (Escherichia coli, UniProt Q9L5C8)
Method: as §1

KPC-2 = KPC-2 (Klebsiella pneumoniae, UniProt Q9F663)
Method: as §1

TEM-1 = TEM-1 (Escherichia coli, UniProt P62593); conditions: nitrocefin substrate, 490 nM as printed
Method: as §1

O=C(NO[C@H]1CCNC1)[C@@H]1CC[C@@H]2CN1C(=O)N2OS(=O)(=O)O [Ex. 2, (2S,5R)-7-oxo-N-[(3S)-pyrrolidin-3-yloxy]-6-(sulfooxy)-1,6-diazabicyclo[3.2.1]octane-2-carboxamide]
IC50 (CMY-2): 32 ± 3 nM | IC50 (CTX-M-9): 127 ± 9 nM | IC50 (KPC-2): 73 ± 7 nM | IC50 (TEM-1): 136 ± 12 nM
